Test results published in patent US11117903B2, “Pyridine derivatives” (Hoffmann-La Roche Inc., priority 2017, dated 2021).
pEC50: −log10 of the molar value. Read-outs that look alike come from different tables or passages of the source.

Target: T1, human CB2 receptors (Homo sapiens, UniProt P34972)
T1 construct: expressed in transfected cells; host or cells: CHO cells
Assay: cAMP assay human CB2
Type: cell-based
Conditions: for Percent relative efficacy compared to the reference agonist CP55940 for which this value is set to +100%: negative values = inverse agonists, CP55940 = +100%
Experimental: The growth medium was exchanged with Krebs Ringer Bicarbonate buffer with 1 mM IBMX and incubated at 30° C. for 30 min. Compounds were added to a final assay volume of 100 μl and incubated for 30 min at 30° C. […] The time-resolved energy transfer is measured by a TRF reader (Evotec Technologies GmbH), equipped with a ND:YAG laser as excitation source. The plate is measured twice with the excitation at 355 nm and at the emission with a delay of 100 ns and a gate of 100 ns, total exposure time 10s at 730 (bandwidth 30 nm) or 645 nm (bandwidth 75 nm), respectively.
EC50 values were determined using Activity Base analysis (ID Business Solution, Limited).

[1] = CHO cells expressing human CB2 receptors, read-out: cAMP assay human CB2 EC50

T1 sequence (P34972 whole entry): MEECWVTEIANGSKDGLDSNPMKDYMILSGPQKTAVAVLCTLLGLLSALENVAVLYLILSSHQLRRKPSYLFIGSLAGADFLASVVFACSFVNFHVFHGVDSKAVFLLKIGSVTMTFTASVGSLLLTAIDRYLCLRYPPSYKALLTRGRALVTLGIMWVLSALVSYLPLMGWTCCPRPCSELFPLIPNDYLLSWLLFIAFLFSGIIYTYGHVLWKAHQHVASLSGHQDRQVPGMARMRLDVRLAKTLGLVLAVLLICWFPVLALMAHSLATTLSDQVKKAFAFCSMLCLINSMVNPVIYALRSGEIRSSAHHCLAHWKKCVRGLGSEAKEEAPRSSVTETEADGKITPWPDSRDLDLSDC

In the case of `O=C(N[C@H](c1cccnc1)C(F)(F)F)c1cc(OCC2CC2)c(Cl)cn1` [Example 10, 5-Chloro-4-(cyclopropylmethoxy)-N-[(1R)-2,2,2-trifluoro-1-pyridin-3-ylethyl]pyridine-2-carboxamide], the pEC50 was 5.81 and the “Percent relative efficacy compared to the reference agonist CP55940 for which this value is set to +100%” value (from here on “Percent relative efficacy … to +100%”) was −36.8%.

With `CO[C@H]1CCCC[C@H]1NC(=O)c1cc(-c2ccc(Cl)cc2)c(OCC2CC2)cn1` [Example 6, 4-(4-chlorophenyl)-5-(cyclopropylmethoxy)-N-[(1R,2S)-2-methoxycyclohexyl]pyridine-2-carboxamide] the pEC50 was 6.91 and the “Percent relative efficacy … to +100%” value was −102.9%.

With `O=C(N[C@@H](CO)c1ccccc1)c1cc(OCC2CC2)c(Cl)cn1` [Example 7, 5-Chloro-4-(cyclopropylmethoxy)-N-[(1R)-2-hydroxy-1-phenylethyl]pyridine-2-carboxamide] the pEC50 was 6.30 and the “Percent relative efficacy … to +100%” value was −41.7%.

`O=C(N[C@H]1CCCC[C@H]1O)c1cc(-c2ccc(Cl)cc2)c(OCC2CC2)cn1` [Example 3, 4-(4-Chlorophenyl)-5-(cyclopropylmethoxy)-N-[(1 S,2R)-2-hydroxycyclohexyl]pyridine-2-carboxamide] was tested, and the pEC50 was 7.33 and the “Percent relative efficacy … to +100%” value was −85.1%.

With `CCOC(=O)C(CC)(CC)NC(=O)c1cc(OCC2(C)COC2)c(C2CC2)cn1` [Example 19, Ethyl 2-[[5-cyclopropyl-4-[(3-methyloxetan-3-yl)methoxy]pyridine-2-carbonyl]amino]-2-ethylbutanoate] the pEC50 was 6.83 and the “Percent relative efficacy … to +100%” value was 13%.

In the case of `CC(CC(N)=O)(NC(=O)c1cc(OCc2ccc(F)cn2)c(C2CC2)cn1)C1CC1` (stereo not shown) [Example 22, N-(4-Amino-2-cyclopropyl-4-oxobutan-2-yl)-5-cyclopropyl-4-[(5-fluoropyridin-2-yl)methoxy]pyridine-2-carboxamide], the pEC50 was 7.33 and the “Percent relative efficacy … to +100%” value was −78.4%.

With `Cc1nnc(C(C)(NC(=O)c2cc(OCC(F)(F)F)c(C3CC3)cn2)C2CNC2)o1` (stereo not shown) [Example 18, N-[1-(azetidin-3-yl)-1-(5-methyl-1,3,4-oxadiazol-2-yl)ethyl]-5-cyclopropyl-4-(2,2,2-trifluoroethoxy)pyridine-2-carboxamide] the pEC50 [1] was 5.14 and the “Percent relative efficacy … to +100%” value was −48.7%.

With `Cc1nc(C(C)(CC2CC2)NC(=O)c2cc(OCC3(C)CC3(F)F)c(Cl)cn2)no1` (stereo not shown) [Example 20, 5-Chloro-N-[1-cyclopropyl-2-(5-methyl-1,2,4-oxadiazol-3-yl)propan-2-yl]-4-[(2,2-difluoro-1-methylcyclopropyl)methoxy]pyridine-2-carboxamide] the pEC50 was 6.38 and the “Percent relative efficacy … to +100%” value was −150.8%.

For `O=C(N[C@@H](c1ccccn1)C(F)(F)F)c1cc(OCC2CC2)c(Cl)cn1` [Example 9, (−) 5-Chloro-4-(cyclopropylmethoxy)-N-[2,2,2-trifluoro-1-pyridin-2-ylethyl]pyridine-2-carboxamide], the pEC50 was 6.53 and the “Percent relative efficacy … to +100%” value was −114.7%.

With `CNC(=O)[C@@H](NC(=O)c1cc(OCC2CC2)c(Cl)cn1)C(C)(C)C` [Example 8, 5-Chloro-4-(cyclopropylmethoxy)-N-[(2S)-3,3-dimethyl-1-(methylamino)-1-oxobutan-2-yl]pyridine-2-carboxamide] the pEC50 was 8.36 and the “Percent relative efficacy … to +100%” value was −141.9%.

In the case of `CC(C)C[C@@H](CO)NC(=O)c1cc(-c2ccc(Cl)cc2Cl)c(OCC2CC2)cn1` [Example 1, 5-(Cyclopropylmethoxy)-4-(2,4-dichlorophenyl)-N-[(2S)-1-hydroxy-4-methylpentan-2-yl]pyridine-2-carboxamide], the pEC50 was 7.82 and the “Percent relative efficacy … to +100%” value was −40.1%.

With `CCC(CC)(NC(=O)c1cc(-c2ccc(Cl)c(Cl)c2)c(OCC2CC2)cn1)C(=O)OC` [Example 5, Methyl 2-[[5-(cyclopropylmethoxy)-4-(3,4-dichlorophenyl)pyridine-2-carbonyl]amino]-2-ethylbutanoate] the pEC50 was 8.16 and the “Percent relative efficacy … to +100%” value was −128.6%.

For `CNC(=O)[C@@H](CC(C)C)NC(=O)c1cc(OCC2CC2)c(Cl)cn1` [Example 12, 5-Chloro-4-(cyclopropylmethoxy)-N-[(2R)-4-methyl-1-(methylamino)-1-oxopentan-2-yl]pyridine-2-carboxamide], the pEC50 was 5.49 and the “Percent relative efficacy … to +100%” value was −40.1%.

In the case of `Cc1nc([C@](C)(CC2CC2)NC(=O)c2cc(-c3ccc(F)nc3)c(OCc3ccccc3)cn2)no1` [Example 23, N-[(2S)-1-Cyclopropyl-2-(5-methyl-1,2,4-oxadiazol-3-yl)propan-2-yl]-4-(6-fluoropyridin-3-yl)-5-phenylmethoxypyridine-2-carboxamide], the pEC50 was 5.99 and the “Percent relative efficacy … to +100%” value was −87.7%.

`CC(C)(C)c1nc(-c2cc(OCc3cccc(S(C)(=O)=O)c3)c(C3CC3)cn2)no1` [Example 17, 5-tert-Butyl-3-[5-cyclopropyl-4-[(3-methylsulfonylphenyl)methoxy]pyridin-2-yl]-1,2,4-oxadiazole] was tested, and the pEC50 [1] was 5.70 and the “Percent relative efficacy … to +100%” value was −49.9%.

`CC(C)(C)OC(=O)N1CC[C@@H](Oc2cc(-c3noc(C(C)(C)C)n3)ncc2C2CC2)C1` [Example 16, tert-Butyl (3R)-3-[2-(5-tert-butyl-1,2,4-oxadiazol-3-yl)-5-cyclopropylpyridin-4-yl]oxypyrrolidine-1-carboxylate] was tested, and the pEC50 was 6.50 and the “Percent relative efficacy … to +100%” value was −103.1%.

`CC(C)(C)c1nc(-c2cc(OCC3CC3)c(N3CC4(COC4)C3)cn2)no1` [Example 14, 6-[6-(5-tert-Butyl-1,2,4-oxadiazol-3-yl)-4-(cyclopropylmethoxy)pyridin-3-yl]-2-oxa-6-azaspiro[3.3]heptane] was tested, and the pEC50 was 7.44 and the “Percent relative efficacy … to +100%” value was −65.9%.

For `CNC(=O)[C@@H](NC(=O)c1cc(OCC2(C)COC2)c(C2CC2)cn1)C(C)(C)C` [Example 13, 5-Cyclopropyl-N-[(2S)-3,3-dimethyl-1-(methylamino)-1-oxobutan-2-yl]-4-[(3-methyloxetan-3-yl)methoxy]pyridine-2-carboxamide], the pEC50 [1] was 7.58 and the “Percent relative efficacy … to +100%” value was −158.8%.

For `CNC(=O)[C@H](CC(C)C)NC(=O)c1cc(OCC2CC2)c(Cl)cn1` [Example 11, 5-Chloro-4-(cyclopropylmethoxy)-N-[(2S)-4-methyl-1-(methylamino)-1-oxopentan-2-yl]pyridine-2-carboxamide], the pEC50 was 6.74 and the “Percent relative efficacy … to +100%” value was −28.5%.

With `Cc1nc(C(C)(CC2CC2)NC(=O)c2cc(On3nnc4ccccc43)c(C(F)(F)F)cn2)no1` (stereo not shown) [Example 21, 4-(Benzotriazol-1-yloxy)-N-[1-cyclopropyl-2-(5-methyl-1,2,4-oxadiazol-3-yl)propan-2-yl]-5-(trifluoromethyl)pyridine-2-carboxamide] the pEC50 was 7.06 and the “Percent relative efficacy … to +100%” value was −147.5%.

`CCC(CC)(NC(=O)c1cc(-c2ccc(Cl)cc2)c(OCC2CC2)cn1)C(=O)OC` [Example 4, Methyl 2-[[4-(4-chlorophenyl)-5-(cyclopropylmethoxy)pyridine-2-carbonyl]amino]-2-ethylbutanoate] was tested, and the pEC50 was 7.84 and the “Percent relative efficacy … to +100%” value was −70.5%.

With `CC(C)(C)OC(=O)N1CCC[C@H]1COc1cc(-c2noc(C(C)(C)C)n2)ncc1C1CC1` [Example 15, tert-Butyl (2S)-2-[[2-(5-tert-butyl-1,2,4-oxadiazol-3-yl)-5-cyclopropylpyridin-4-yl]oxymethyl]pyrrolidine-1-carboxylate] the pEC50 was 5.82 and the “Percent relative efficacy … to +100%” value was −75.2%.

With `O=C(N[C@@H]1CCCC[C@@H]1O)c1cc(-c2ccc(Cl)cc2)c(OCC2CC2)cn1` [Example 2, 4-(4-Chlorophenyl)-5-(cyclopropylmethoxy)-N-[(1R,2S)-2-hydroxycyclohexyl]pyridine-2-carboxamide] the pEC50 was 6.59 and the “Percent relative efficacy … to +100%” value was −90.6%.
